Experiments:
Format in all cases: in vivo, human
[1] = test system: patients with Cocaine Use Disorder (CUD); experiment: Phase 2 trial: quantitative urine measurement of benzoylecgonine (BE); conditions: 98-day administration, P=0.025
Description: (§1) This study was conducted in patients with CUD and consisted of about a 21-day screening period followed by a 7-day baseline period, a 98-day outpatient treatment period, and an end of study visit evaluation about 14 days after the last study drug administration ([…]. A). Study treatment was taken twice daily (separated by about 12-hour intervals) with food. For patients in the mavoglurant arm [mavoglurant (free form) provided as modified release formulation (e.g. in WO2014/199316)], an uptitration regimen was performed for 14 days (50 mg b.i.d. from Days 1 to 7 and 100 mg b.i.d from Days 8 to 14) and was followed by 200 mg b.i.d for 84 days.
The primary endpoint was the proportion of cocaine use days during the treatment period, assessed by timeline followback [TLFB] cocaine self-report report. The secondary endpoints included a weekly urine analysis for a log-transformed quantitative measure of cocaine metabolite benzoylecgonine (BE), safety assessments (clinical parameters, suicidal ideation, adverse events [AE] and serious adverse events [SAE] at every visit), and pre- and post-dose levels of mavoglurant in the plasma. […]
Two urine samples per week provided a log-transformed quantitative measure of BE (cocaine's metabolite). […]

[2] = test system: patients with Cocaine Use Disorder (CUD); experiment: Phase 2 trial: Clinical Global Impression (CGI) improvement; conditions: P<0.001
Description: as §1
The primary endpoint was the proportion of cocaine use days during the treatment period, assessed by timeline followback [TLFB] cocaine self-report report. The secondary endpoints included a weekly urine analysis for a log-transformed quantitative measure of cocaine metabolite benzoylecgonine (BE), safety assessments (clinical parameters, suicidal ideation, adverse events [AE] and serious adverse events [SAE] at every visit), and pre- and post-dose levels of mavoglurant in the plasma. Exploratory endpoints included Clinical Global Impression (CGI; 2 components: CGI-S [rated illness severity], CGI-I [rated change from baseline]).
Observer Reported Outcome: • 1. […]

[3] = Phase 2 trial: safety and adverse events
Description: as §1
Data for vital signs, electrocardiogram (ECG) and clinical laboratory evaluations were summarized by treatment and visit/time. Mavoglurant plasma concentrations were recorded at pre-dose and 2 hour (±1 hour) sampling window after the morning dose and summary statistics for concentrations were provided for plasma.
Data for vital signs (BP, pulse rate, body temperature), ECGs, and clinical laboratory evaluations were listed by treatment, subject, visit/time; abnormalities were flagged (if ranges were available).
The number and percentage of subjects with AEs are tabulated by body system and PT with a breakdown by treatment. A subject with multiple AEs within body system was only counted once towards the total of this body system and treatment.
Patient Reported Outcome included: • 1. The TLFB cocaine: is a cocaine assessment method that obtains estimates of daily cocaine intake and has been evaluated with clinical and nonclinical populations. Using a calendar, people provide retrospective estimates of their daily cocaine use over a specified time period that can vary up to 12 months from the interview date. Several memory aids can be used to enhance recall (e.g., calendar; key dates serve as anchors for reporting cocaine use). […] The method is recommended for use when relatively precise estimates of cocaine use are necessary, especially when a complete use pre-posttreatment). Clinically, the TLFB can be used to provide feedback about one's cocaine consumption in an effort to increase a client's motivation to change. • 2. The TLFB alcohol: is a drinking assessment method that obtains estimates of daily drinking and has been evaluated with clinical and nonclinical populations. Using a calendar, people provide retrospective estimates of their daily drinking over a specified time period that can vary up to 12 months from the interview date. Several memory aids can be used to enhance recall (e.g., calendar; key dates serve as anchors for reporting drinking; standard drink conversion). […] The method is recommended for use when relatively precise estimates of drinking are necessary, especially when a complete picture of drinking days (i.e., high- and low-risk days) is needed (evaluating drinking pre/post-treatment). Clinically, the TLFB can be used to provide feedback about one's drinking in an effort to increase a client's motivation to change. Overall, the Alcohol TLFB method provides a relatively accurate portrayal of drinking, and has both clinical and research utility. • 3. The BDI-II: is instrument endorsed by the National Institute for Health and Clinical Excellence for use in primary care in measuring baseline depression severity and responsiveness to treatment. • 4. The STAI: is an assessment tool for measuring the presence and severity of current symptoms of anxiety and a generalized propensity to be anxious. There are 2 subscales within this measure. First, the State Anxiety Scale (S-Anxiety) evaluates the current state of anxiety, asking how respondents feel “right now,” using items that measure subjective feelings of apprehension, tension, nervousness, worry, and activation/arousal of the autonomic nervous system. […]

COC(=O)N1CC[C@@H]2[C@H]1CCC[C@@]2(O)C#Cc1cccc(C)c1 [mavoglurant, (-)-(3aR,4S,7aR)-4-Hydroxy-4-m-tolylethynyl-octahydro-indole-1-carboxylic acid methyl ester]
cocaine consumption as assessed by urine benzoylecgonine (BE) vs placebo [1]: significantly lower levels of BE in urine | cocaine consumption as assessed by urine benzoylecgonine (BE) vs placebo ([1]; listed as Mavoglurant): significantly reduced cocaine consumption | clinical improvement by CGI vs placebo (result in words) ([2]; CGI-I improvement from baseline): significantly enhanced clinical improvement | CGI 'very much' and 'much' improved, patients ([2]; Day 98, placebo 46.6%): 90.9% | overall AE rate vs placebo group ([3]; CUD patients, 98-day treatment): comparable | overall safety and tolerability ([3]; CUD patients, 98-day treatment): safe and well tolerated | rate of psychiatric symptoms vs placebo group ([3]; CUD patients, 98-day treatment): higher rate of psychiatric symptoms | vital signs, ECGs, clinical safety laboratory parameters ([3]; CUD patients, 98-day treatment): no significant findings | overall safety and tolerability ([3]; CUD patients, 98-day treatment, listed as Mavoglurant): safe and well-tolerated | deaths or SAEs ([3]; mavoglurant group): no deaths or SAEs

From US20240050408A1, “USE OF MGLUR5 ANTAGONISTS FOR TREATING AMPHETAMINE ADDICTION” (NOVARTIS AG, priority 2020, published 2024)
